The values below are quoted from earlier work in EP4088714A1, “OPHTHALMIC PHARMACEUTICAL COMPOSITION COMPRISING ATROPINE” (Warszawskie Zaklady Farmaceutyczne Polfa S.A., priority 2021, dated 2022).

SMILES strings stand for the structures.

Regarding `CN1[C@@H]2CC[C@H]1C[C@@H](OC(=O)C(CO)c1ccccc1)C2` (some centres unmarked) [atropine, Atropine], for the setting “concentrations 0.01% to 0.05%, treated patients, two years of treatment”, the “need for photochromatic glasses” value was “higher than 30%”. Also, the tolerability result (concentrations ranging from 0.01% to 0.05%, 383 children, after two years of treatment) is recorded as “well tolerated”.
